The values below come from US20140194517A1, “Treatment of Graft-Versus-Host Disease Disorders using RAR Antagonists” (Io Therapeutics, Inc., priority 2013, published 2014).

The test system of the assay is B10.BR recipients (acute GVHD). Description: Acute GVHD after allogeneic BMT: lethally irradiated B10.BR recipients given B6 BM and splenocytes. It counts as in vivo, mice. Conditions: 15×10^6 splenocytes, ATRA 200 μg/mouse IP daily day 0 to 28. How it is done:
FIG. 3. Heightened RA levels and RAR-α signaling exacerbates GVHD. Survival and weight curves of lethally irradiated B10.BR recipients (n=8/group) injected with 10^7 BM and 15×10^6 splenocytes from B6 mice. Subgroups were treated with vehicle (filled circles) or all trans retinoic acid (ATRA) (open circles) p=0.013.
FIG. 4. Heightened RA levels and RAR-α signaling exacerbates GVHD. Survival and weight curves of lethally irradiated B10.BR recipients (n=8/group) injected with 10^7 BM and 5×10^6 splenocytes from B6 mice. Subgroups were treated with vehicle (filled circles) or ATRA (open circles) p=0.037.
To determine whether heightened vitamin A signaling would augment acute GVHD, B10.BR recipients given BM with or without 15×10^6 splenocytes from B6 mice were given ATRA (200 μg/mouse IP) daily from day 0 to 28. […] These findings indicate heightened vitamin A levels and RAR signaling can enhance GVHD lethality.

Consider `CC1=C(/C=C/C(C)=C/C=C/C(C)=C/C(=O)O)C(C)(C)CCC1` [ATRA, all trans retinoic acid], for which, where the note is “p=0.013 vs vehicle”, the GVHD lethality entry is given as “significant increase”. In addition, where the note is “vehicle 21.5 days”, the “median survival time (MST)” value turned out to be 9 days. Also, the weight loss result (vs vehicle) is reported as “accelerated weight loss”.
